Assays:
serum albumin = assay: binding assay with serum albumin (ultrafiltration of pooled plasma); type: in vitro ADME, rat; conditions: pooled plasma of EHBRs, filtrate undetectable by LC-MS/MS
Experimental: In total 100 µl of pooled plasma samples from female EHBRs described above were ultra-centrifugated using Centricut W-20 (Molecular weight cut off 2 × 10^4, Kurabo Industries Ltd., Osaka, Japan) according to the manufacturer’s instruction, and the concentration of compound 1 in the filtrate was measured by using LC-MS/MS described in uptake study section.

[1] = pharmacokinetics in EHBRs orally treated with GA (200 mg/kg), LC-MS/MS; type: in vivo, Eisai Hyperbilirubinemia rats (EHBRs)
Experimental: (§1) Female SD rats or EHBRs (9-week-old) were anesthetized by an intraperitoneal (i.p.) injection of urethane (1 g/kg) and their jugular veins were exposed. […] Aliquots (10 µl) of plasma or urine were mixed with 20 µl of subtilisin (0.91 U/ml), incubated at 37 °C for 30 min, followed by the addition of 70 µl of astragalloside IV solution (1 µg/ml in ethanol containing 0.5% formic acid), and kept at −20 °C for 30 min.

[2] = concentrations in pooled plasma of EHBRs 12 h after oral GA (200 mg/kg); type: in vivo; conditions: Eisai Hyperbilirubinemia rats (EHBR), rat
Experimental: Three female and three male EHBRs (9-week-old, respectively) were injected with urethane (1 g/kg, i.p.), and orally treated with an aqueous GA aqueous suspension (200 mg/kg in 1% CMC). Twelve h after the treatment, blood was collected from the abdominal vena cava, and the plasma samples of each sex rat were pooled.
LC-ESI(+)MS/MS analysis was conducted at the following conditions: column, Scherzo SM-C18 (3 μm, 3 mm i.d. ×100 mm, Imtakt, Kyoto, Japan); mobile phase, (A) 5 mM AcNH4, (B) 125 mM AcNH4/acetonitrole 1:4, at a flow rate of 0.3 ml/min, with the following gradient profile: A:B = 50:50–0:100 (0–3 min) and 0:100 (3–10 min); compound 1 (5.8 min), astragaloside IV (3.0 min), GA (8.7 min); the transitions monitored were the same as described in the previous section. Linear regressions over the concentration range 0.08–2 µM for compound 1 and 3.2 nM–2 µM for GA were examined using the peak-area ratio of the compounds to their internal standards and the least-squares method (r^2 > 0.98).

OAT1 = target: T1, OAT1 (Homo sapiens, UniProt Q4U2R8); assay: uptake by MDCK II cells stably expressing OAT1; type: in vitro ADME; conditions: pooled plasma of male EHBRs (79 µM compound 1), pH 5.5, 37 °C, 15 min
T1 construct: expressed in transfected cells
T1 sequence (Q4U2R8 1-563): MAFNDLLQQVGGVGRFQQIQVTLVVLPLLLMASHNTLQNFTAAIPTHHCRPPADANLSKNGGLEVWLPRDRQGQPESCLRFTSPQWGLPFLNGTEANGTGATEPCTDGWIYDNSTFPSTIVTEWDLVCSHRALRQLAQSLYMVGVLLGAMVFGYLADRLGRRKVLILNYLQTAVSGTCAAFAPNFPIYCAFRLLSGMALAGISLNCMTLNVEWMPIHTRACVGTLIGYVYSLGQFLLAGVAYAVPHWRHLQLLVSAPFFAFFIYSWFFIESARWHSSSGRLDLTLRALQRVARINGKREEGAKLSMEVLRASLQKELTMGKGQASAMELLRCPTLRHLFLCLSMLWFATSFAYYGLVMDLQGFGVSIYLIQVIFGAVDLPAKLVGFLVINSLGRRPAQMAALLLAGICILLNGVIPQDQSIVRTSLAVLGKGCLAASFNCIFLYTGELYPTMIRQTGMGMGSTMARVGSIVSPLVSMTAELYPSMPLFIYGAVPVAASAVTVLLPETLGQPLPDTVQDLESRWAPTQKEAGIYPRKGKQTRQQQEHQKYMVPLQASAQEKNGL
Experimental: (§2) MDCKII cells were cultured in Dulbecco’s modified Eagle’s medium containing 10% FBS, 100 U/ml penicillin, and 100 µg/ml streptomycin at 37 °C in 5% CO2. Plasmids carrying the cDNAs encoding human organic anion transporter (OAT) 1 and 3 were prepared using the pCI-neo mammalian expression vector, as described previously. Using the plasmids, MDCKII cells stably expressing OAT1 and 3 were prepared as described previously, and tested for their functional expressions by evaluating the transports of [^3H]p-aminohippurate and [^3H]estrone sulfate, respectively, as probe substrates.
(§3) For the transport assay, the cells were seeded in 24-well plates (1 × 10^5 cells/well), and incubated for 24 h. The cells were pre-incubated for 15 min at 37 °C with 0.25 ml of the incubation medium described above. Two ml of pooled female or male EHBR plasma samples was lyophilized, and dissolved in 2 ml of 10 mM MES (pH 5.5). The cells were then incubated further at 37 °C for 15 min with 0.1 ml of pooled female or male EHBR plasma samples. The surface of the cells was washed 3 times with 0.5 ml of ice-cold PBS, and then the contents were extracted with 0.2 ml of ethanol. The cell residues were dissolved by 0.1 ml of 1 M NaOH, and after neutralization by adding 0.1 ml of 1 M HCl, the concentrations of protein were measured as mentioned above.

OAT3 = target: T2, OAT3 (Homo sapiens, UniProt Q8TCC7); assay: uptake by MDCK II cells stably expressing OAT3; type: in vitro ADME; conditions: pooled plasma of male EHBRs (79 µM compound 1), pH 5.5, 37 °C, 15 min
T2 construct: expressed in transfected cells
T2 sequence (Q8TCC7 1-542): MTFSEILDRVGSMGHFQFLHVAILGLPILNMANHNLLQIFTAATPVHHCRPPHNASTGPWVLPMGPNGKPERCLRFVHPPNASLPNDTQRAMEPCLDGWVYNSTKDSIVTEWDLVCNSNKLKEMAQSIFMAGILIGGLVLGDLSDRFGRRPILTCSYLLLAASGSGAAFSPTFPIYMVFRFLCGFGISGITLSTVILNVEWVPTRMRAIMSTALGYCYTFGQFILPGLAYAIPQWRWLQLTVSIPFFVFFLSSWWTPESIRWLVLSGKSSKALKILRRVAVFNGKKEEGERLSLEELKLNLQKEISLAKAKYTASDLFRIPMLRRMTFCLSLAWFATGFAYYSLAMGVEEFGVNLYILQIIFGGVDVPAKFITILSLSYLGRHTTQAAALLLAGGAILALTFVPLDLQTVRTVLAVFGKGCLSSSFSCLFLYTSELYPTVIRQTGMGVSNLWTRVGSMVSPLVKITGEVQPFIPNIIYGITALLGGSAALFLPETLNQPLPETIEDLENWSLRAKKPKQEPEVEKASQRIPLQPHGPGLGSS
Experimental: as §2, §3

[3] = pharmacokinetics in SD rats orally treated with GA (200 mg/kg), LC-MS/MS; type: in vivo, Sprague Dawley (SD) rats; conditions: female SD rats, GA 200 mg/kg oral, over 12 h
Experimental: as §1

In the case of `CC1(C(=O)OC2OC(C(=O)O)C(O)C(O)C2O)CC(O)C2(C)CCC3(C)C(=CC(=O)C4C5(C)CCC(OS(=O)(=O)O)C(C)(C)C5CCC43C)C2C1` (stereo not drawn) [Compound 1, 22α-hydroxy-18β-glycyrrhetyl-3-O-sulfate-30-glucuronide], the “albumin-binding ratio in plasma” value (serum albumin) is reported as “more than 99.9%”, the “plasma concentration, times higher than that of 3MGA” value ([1]; EHBRs orally treated with GA) is reported as “about 10 times” and the concentration at 12 h ([1]; Eisai Hyperbilirubinemia rats (EHBR), rat, plasma, female EHBRs, GA 200 mg/kg oral, 12 h, read-out: plasma concentration 12 h after GA treatment) is reported as 5.3 µM. For the same compound, the “urinary elimination in EHBRs” value ([1]; female EHBRs, GA 200 mg/kg oral, over 12 h) was “eliminated via urine”, the concentration at 12 h ([2]; female, read-out: concentration in pooled plasma, female EHBRs) was 15 µM and the concentration at 12 h ([2]; male, read-out: concentration in pooled plasma, male EHBRs) was 79 µM. For the same compound, the “uptake by cells expressing OAT1 compared with mock cells” value (OAT1) was “higher than that by mock cells”, the “uptake by cells expressing OAT3 compared with mock cells” value (OAT3) was “higher than that by mock cells” and the “detection in plasma of SD rats” value [3] was “not detected”. The “urinary elimination in SD rats” value [3] was “not detected”.

From PMC6197257 (Scientific Reports, 2018)
